Measurements taken from article PMC4245091, “Novel Virtual Screening Approach for the Discovery of Human Tyrosinase Inhibitors” (PLoS ONE, 2014).

Molecular target: T1, Mushroom tyrosinase
T1 construct: gene PPO1; commercial native mushroom preparation (Sigma-Aldrich)
Assay: L-tyrosine to dopachrome, absorbance at […] nm
Assay type: biochemical
Details: L-tyrosine 0.2 mg/ml; 2 µg/ml enzyme; 100 mM phosphate pH 6.8; 5% ethanol; 25 °C; 30 min

An IC50 of 8 µM was found for `CC(C)c1ccc(C(=O)CC(Sc2ccc(Cl)cc2)C(=O)O)cc1` (stereo not shown) [Lead1] in this work.
